{"source": "patent US11752158B2", "about": "(priority 2007, dated 2023)", "key": {"[1]": {"tested_on": "patients with advanced prostate cancer", "conditions": "human, in vivo, po", "from_the_text": "The efficacy and safety of an oral preparation of 25-hydroxyvitamin D2 is examined in a 3-month study of patients with advanced prostate cancer being treated with high-dose calcitriol once per week. For this study, 25-hydroxyvitamin D2 was formulated in soft-gelatin capsules. Forty patients with advanced prostate cancer undergoing treatment with high-dose calcitriol and Docetaxel were divided into two equal groups. Along with weekly calcitriol doses, group #1 receives between 2-20 mcg 25-hydroxyvitamin D2, while group #2 receives placebo. Prior to enrolling, all subjects provide two fasting morning blood samples, separated by at least one week, to establish pre-treatment baseline values of serum calcium, plasma intact PTH, and serum 25-hydroxyvitamin D. Additional fasting blood samples and 24-hour urine collections are obtained from each subject 24 h following the administration of the weekly administration of calcitriol for determination of serum calcium and serum 25-hydroxyvitamin D. Throughout the study, all subjects adhere to a daily intake of approximately 1,000 to 1,500 mg of elemental calcium (from self-selected diets and calcium supplements, as needed) under the ongoing guidance of a dietician. At the conclusion of the study, the laboratory data are analyzed by treatment group and by test formulation after appropriate correction for baseline values."}, "[2]": {"experiment": "Serum metabolites of 25-hydroxyvitamin D3 and 25-hydroxyvitamin D2 (Example 1, FIG. 4 and 5)", "format": "in vivo, rat", "method": "(§1) The concentration of total 25-hydroxyvitamin D at 120 hours post initial dose was determined in serum samples using a high-performance liquid chromatographic method using tandem mass spectrometry detection. The method was utilized to determine the individual concentrations of 25-hydroxyvitamin D3 and 25-hydroxyvitamin D2 in serum and the total was determined as a sum of the concentrations. At 24 h post final dose, serum collected from animals was analyzed for changes in levels of 25-hydroxyvitamin D3, 25-hydroxyvitamin D2 and their metabolites."}, "[3]": {"tested_on": "patients with end-stage renal disease (ESRD)", "experiment": "Serum calcium in end-stage renal disease patients on hemodialysis (Example 4)", "format": "in vivo, human", "conditions": "i.v. thrice weekly", "method": "(§2) The formulations examined in this study are aqueous isotonic and sterile solutions containing either 20 mcg of 25-hydroxyvitamin D3 alone (test preparation #1) or in combination with 10 mcg 25-hydroxyvitamin D2 (test preparation #2). A total of 75 […] Caucasian, Asian, Hispanic and African-American subjects participate in this study, all of whom are at least 4-months on regular hemodialysis and have serum 25-hydroxyvitamin D levels below 15 ng/mL. Prior to enrolling, all subjects provide two fasting morning blood samples, separated by at least one week, to establish pre-treatment baseline values of serum calcium, plasma intact PTH, and serum 25-hydroxyvitamin D. On the morning of Day 1, the subjects are randomly assigned to one of three treatment groups, and they begin thrice weekly dosing with the test preparation #1 or #2, or with a matching placebo. All dosing occurs during regularly scheduled hemodialysis sessions and is accomplished by gradual injection (over a period of 1 to 5 minutes) into the blood exiting from the hemodialysis machine. […] At the conclusion of the study, the laboratory data are analyzed by treatment group and by test formulation after appropriate correction for baseline values. […]"}, "[4]": {"tested_on": "male Sprague-Dawley rats", "experiment": "Serum calcium levels after 5-day i.v. dosing (Example 1, FIG. 2)", "format": "in vivo, rat", "conditions": "Group 11: 6 μg/kg 25-hydroxyvitamin D3 alone, 5 day treatment period", "method": "(§3) To examine the reduction of toxicity associated with the co-administration of 25-hydroxyvitamin D3 with 25-hydroxyvitamin D2 compared to 25-hydroxyvitamin D3 alone, 90 male Sprague-Dawley rats are treated intravenously for five consecutive days with various combinations of 25-hydroxyvitamin D3 and 25-hydroxyvitamin D2. One day prior to the initiation of the study, rats are randomly selected, assigned to groups and treated as follows in Table 3:\n(§4) For each day's treatment of each animal, the appropriate material was administered i.v. Daily treatments were performed within a 3 hours window on each day. On the first day of treatment (pre-dose) and at 24 hours time points on day 2 before the second dose administration (0 being the time of the first injection), blood (˜1 mL) was collected from the jugular vein catheter from animals in Group 1 to 15 into unpreserved tubes. The serum was separated out, transferred into new tubes that were immediately frozen at approximately −80° C. Prior to the sacrifice of all animals at 120 hours on Day 6 blood (˜2 mL) was collected into unpreserved tubes from the jugular vein catheter from all animals. […] For each animal, the necropsy consisted of an external examination, including reference to all clinically recorded lesions, as well as internal “abbreviated” examinations."}, "[5]": {"experiment": "Total serum 25-hydroxyvitamin D by LC-MS/MS (Example 1, FIG. 1)", "format": "in vivo, rat", "conditions": "indicated dosing, daily for a period of 5 days; 120 hours post initial dose", "method": "as §3, §1"}, "[6]": {"tested_on": "male Sprague-Dawley rats", "experiment": "Serum calcium levels at day 5 (Example 2, FIG. 6)", "format": "in vivo, rat", "conditions": "i.v. once a day for 5 days", "method": "Another study was carried out to assess the effects of co-administration of 25-hydroxyvitamin D with 25-hydroxyvitamin D2 compared to 25-hydroxyvitamin D3 alone on 102 male Sprague-Dawley rats. Rats about […], about 175-250 g in weight, were divided into groups of six males each. The groups were administered various combinations of 25-hydroxyvitamin D3 and 25-hydroxyvitamin D2 intravenously (or the same volume of control vehicle) once daily via the jugular vein catheter, for five consecutive days, according to Table 5 below.\nDosing was carried out at similar times each day, within a three hour window of the time of last dose. Blood was collected at day 0 (the first day of treatment) for analysis, and animals were monitored twice daily. Animals from all groups were euthanized on day 5, 24 hours after the last dose, and blood was collected by cardiac puncture. All rats were subjected to an abbreviated necropsy."}, "[7]": {"tested_on": "male Sprague-Dawley rats", "experiment": "Gross necropsy after 5-day i.v. dosing (Example 1)", "format": "in vivo, rat", "conditions": "i.v. once a day for 5 days", "method": "as §3, §4"}, "[8]": {"experiment": "Serum 25-hydroxyvitamin D in end-stage renal disease patients on hemodialysis (Example 4)", "format": "in vivo, human", "conditions": "i.v. thrice weekly, 20 mcg 25-hydroxyvitamin D3 alone or with 10 mcg 25-hydroxyvitamin D2; first 3 months of dosing, steady state thereafter", "method": "as §2"}}, "note": "“And” between values parts separate entries of the source, which are not always exact repeats. Identical values can stand only once. “Also recorded” adds a separate entry of the source.", "data": [{"smiles": "C=C1CC[C@H](O)C/C1=C/C=C1\\CCC[C@]2(C)[C@@H]([C@H](C)/C=C/[C@H](C)C(C)(C)O)CC[C@@H]12", "note": "[25-hydroxyvitamin D2]", "values": [{"measurement": "episodes of hypercalcemia (serum calcium above 10.2 mg/dL)", "setting": "[1]", "value": "more frequently observed in the placebo group than in the treatment group"}, {"measurement": "metabolism / catabolism of the prohormone", "setting": "[2]; rat, in vivo", "value": "catabolized more readily to 24, 25-dihydroxyvitamin D2"}]}, {"smiles": "C=C1CC[C@H](O)C/C1=C/C=C1\\CCC[C@]2(C)[C@@H]([C@H](C)CCCC(C)(C)O)CC[C@@H]12", "note": "[25-hydroxyvitamin D3]", "values": [{"measurement": "mean serum calcium", "setting": "[3]; 20 mcg 25-hydroxyvitamin D3 alone or with 10 mcg 25-hydroxyvitamin D2, 3-month study", "value": "increase significantly from baseline"}, {"measurement": "episodes of hypercalcemia (serum calcium above 10.2 mg/dL)", "setting": "[3]; 20 mcg 25-hydroxyvitamin D3 alone, 3-month study", "value": "more frequently observed"}, {"measurement": "serum calcium levels", "setting": "[4]", "value": "highest achieved level of serum calcium; also recorded: hypercalcemia"}, {"measurement": "total serum 25-hydroxyvitamin D", "setting": "[5]", "value": "elevation"}, {"measurement": "Serum calcium levels at day 5", "setting": "[6]; 4 μg/kg 25-hydroxyvitamin D3 alone", "value": "hypercalcemia"}, {"measurement": "Serum calcium levels at day 5", "setting": "[6]; 8 μg/kg 25-hydroxyvitamin D3 alone", "value": "hypercalcemia"}, {"measurement": "Gross Necropsy Findings", "setting": "[7]; Group 6: 25-hydroxyvitamin D2 0 μg/kg, 25-hydroxyvitamin D3 0.3 μg/kg", "value": "None"}, {"measurement": "Gross Necropsy Findings", "setting": "[7]; Group 11: 25-hydroxyvitamin D2 0 μg/kg, 25-hydroxyvitamin D3 6 μg/kg", "value": "Severe signs of toxicity (blood in the lungs) and 4 of 6 animals treated exhibiting blood in lung tissue and 4/6 animals had"}, {"measurement": "metabolism / catabolism of the prohormone", "setting": "[2]; observation in rats, serum 24 h post final dose", "value": "catabolized more readily to the active 1,25-dihydroxyvitamin D3 form"}, {"measurement": "serum 25-hydroxyvitamin D levels", "setting": "[8]", "value": "progressively increasing"}]}]}
